The values that follow come from ChEMBL document CHEMBL5385844, “Discovery of novel imidazole chemotypes as isoform-selective JNK3 inhibitors for the treatment of Alzheimer's disease” (Eur J Med Chem, 2023).

Data set [1] has as its target T1, Dual specificity mitogen-activated protein kinase kinase 4 (Homo sapiens, UniProt P45985).
T1 sequence (P45985 whole entry): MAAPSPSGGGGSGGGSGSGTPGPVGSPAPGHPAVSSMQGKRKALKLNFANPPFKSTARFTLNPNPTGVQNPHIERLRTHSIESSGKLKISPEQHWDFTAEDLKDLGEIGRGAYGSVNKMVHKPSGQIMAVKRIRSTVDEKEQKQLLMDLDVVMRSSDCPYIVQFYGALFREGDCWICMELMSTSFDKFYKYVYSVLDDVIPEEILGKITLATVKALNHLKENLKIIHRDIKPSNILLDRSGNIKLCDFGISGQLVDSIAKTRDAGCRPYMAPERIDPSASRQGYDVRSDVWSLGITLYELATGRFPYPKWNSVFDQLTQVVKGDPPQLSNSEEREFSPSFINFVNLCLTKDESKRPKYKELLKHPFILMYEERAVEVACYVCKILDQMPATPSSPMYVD
The data set is described as follows: Inhibition of MKK4 (unknown origin) assessed as incorporation of 33P-ATP.

The test system of data set [2] is Mus musculus. The data set is described as follows: Anti-alzheimer activity against homozygous 3 x Tg mouse model assessed as escape latency time at 30 mg/kg, po administered daily for 2 months and measured after 60 days of treatment by Passive avoidance test (reference value: 43.44 +/- 7.35 sec). Type of data set: functional. The settings on record: 1460 h.
Data set [3] relates to Mus musculus. The data set is described as follows: Anti-alzheimer activity against APP/PS1 dE9 double transgenic mouse model assessed as time spent in platform quadrant at 10 mg/kg, po administered 3 times/week for 1 month and measured after 40 to 45 days of treatment by Morris water maze test (reference value: 11.06 +/- 1.53 %). Type of data set: functional. To be noted: time 27 day.

Data set [4] in a line: Drug uptake in Sprague-Dawley rat brain at 30 mg/kg, po measured at Tmax. Type of data set: ADME, organism-based. The settings on record: in vivo.
A short description of data set [5]: AUC in Sprague-Dawley rat at 3 mg/kg, po measured upto 24 hrs by UPLC analysis. Type of data set: ADME, organism-based. Also noted: time < 24 hrs, dose 3 mg/kg, route po. To be noted: in vivo.
The target in data set [6] is T2, Dual specificity mitogen-activated protein kinase kinase 6 (Homo sapiens, UniProt P52564).
T2 sequence (P52564 whole entry): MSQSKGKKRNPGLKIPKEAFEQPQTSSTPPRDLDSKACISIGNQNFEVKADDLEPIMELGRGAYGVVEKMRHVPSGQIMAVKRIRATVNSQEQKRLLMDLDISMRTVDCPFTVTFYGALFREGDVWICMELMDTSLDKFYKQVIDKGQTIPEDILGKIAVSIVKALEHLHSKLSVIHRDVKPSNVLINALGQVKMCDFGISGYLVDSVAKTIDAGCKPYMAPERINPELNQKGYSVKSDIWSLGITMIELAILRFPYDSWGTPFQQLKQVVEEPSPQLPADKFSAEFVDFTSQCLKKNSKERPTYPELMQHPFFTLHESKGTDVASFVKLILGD
As to the kind of experiment: Inhibition of MKK6 (unknown origin) assessed as incorporation of 33P-ATP.

The subject of data set [7] is Mus musculus. As to the kind of experiment: Anti-alzheimer activity against APP/PS1 dE9 double transgenic mouse model assessed as escape latency time at 10 mg/kg, po administered 3 times/week for 1 month and measured after 27 days of treatment by Passive avoidance test (reference value: 18.5 +/- 2.3 sec). The data set is classed as functional. The settings on record: time 27 day.

Data set [8] has as its target Mitogen-activated protein kinase 10 (Rattus norvegicus) (UniProt P49187). The data set is described as follows: Inhibition of JNK3 in Amyloid beta (1 to 42)-induced c-Jun phosphorylation in primary rat cortex neuron assessed as decrease in c-Jun phosphorylation incubated for 24 hrs by Western blot analysis. To be noted: Primary cortical neuron, dose 10-20 µM. The data set is classed as cell-based.

Data set [9] concerns Mus musculus. As to the kind of experiment: Anti-alzheimer activity against APP/PS1 dE9 double transgenic mouse model assessed as spontaneous alteration at 30 mg/kg, po administered 3 times/week for 1 month and measured after 27 days of treatment by Y-maze test (reference value: 46.70 +/- 3.32%). The data set is classed as functional. The settings on record: time 1 months, 730 h.

The test system of data set [10] is Mus musculus. As to the kind of experiment: Anti-alzheimer activity against homozygous 3 x Tg mouse model assessed as escape latency time at 60 mg/kg, po administered daily for 2 months and measured after 60 days of treatment by Passive avoidance test (reference value: 43.44 +/- 7.35 sec). To be noted: 1460 h. The data set is classed as functional.
The nature of data set [11]: Half life in Sprague-Dawley rat at 3 mg/kg, po measured upto 24 hrs by UPLC analysis. The data set is classed as ADME, organism-based. To be noted: in vivo.
Data set [12] concerns the target T3, MAPK/MAK/MRK overlapping kinase (Homo sapiens, UniProt Q9UQ07).
T3 sequence (Q9UQ07 whole entry): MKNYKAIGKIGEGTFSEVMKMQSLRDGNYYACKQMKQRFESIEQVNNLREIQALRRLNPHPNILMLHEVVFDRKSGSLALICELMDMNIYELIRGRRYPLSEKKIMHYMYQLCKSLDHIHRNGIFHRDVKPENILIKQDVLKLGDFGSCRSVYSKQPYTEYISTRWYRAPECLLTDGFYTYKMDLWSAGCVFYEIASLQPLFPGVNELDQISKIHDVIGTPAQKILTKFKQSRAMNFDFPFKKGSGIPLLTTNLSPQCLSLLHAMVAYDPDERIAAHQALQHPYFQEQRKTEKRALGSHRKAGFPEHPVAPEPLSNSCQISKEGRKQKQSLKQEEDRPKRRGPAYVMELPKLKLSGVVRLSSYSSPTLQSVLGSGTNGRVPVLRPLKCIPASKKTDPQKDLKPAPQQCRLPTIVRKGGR
As to the kind of experiment: Inhibition of MOK (unknown origin) assessed as incorporation of 33P-ATP.

Data set [13] deals with Glycogen synthase kinase-3 alpha (Homo sapiens, UniProt P49840). As to the kind of experiment: Inhibition of human GSK3alpha assessed as incorporation of 33P-ATP.
For data set [14], the system named is Cortical neurone. As to the kind of experiment: Neuroprotective activity against Amyloid beta (1 to 42)-induced toxicity in rat cortical neuron assessed as cell viability at 20 uM measured after 48 hrs by MTT assay. Type of data set: functional. The settings on record: read-out: Activity. In general terms: Tetrazolium assays rely on reduction of a dye to a coloured formazan, in cell work by metabolically active cells.

Data set [15] can be described thus: Toxicity in APP/PS1 mouse assessed as dead animal at 10 mg/kg, po treated 3 times/week for 1 month. The settings on record: in vivo, 730 h, time 1 months. The data set is classed as organism-based.
Data set [16] is described as follows: Toxicity in APP/PS1 mouse assessed as weight change at 10 mg/kg, po treated 3 times/week for 1 month. The data set is classed as organism-based. To be noted: in vivo, 730 h, time 1 months.
Data set [17] is described as follows: Tmax in Sprague-Dawley rat at 3 mg/kg, po measured upto 24 hrs by UPLC analysis. Type of data set: ADME, organism-based. To be noted: in vivo.
In data set [18] the test system is Mus musculus. As to the kind of experiment: Anti-alzheimer activity against homozygous 3 x Tg mouse model assessed as spontaneous alteration at 30 mg/kg, po administered daily for 2 months and measured after 57 days of treatment by Y-maze test (reference value: 46.81 +/- 2.76%). The data set is classed as functional. The settings on record: 1460 h.
Data set [19] can be described thus: Oral bioavailability in Sprague-Dawley rat at 3 mg/kg measured upto 24 hrs by UPLC analysis. The data set is classed as ADME, organism-based. To be noted: in vivo.
In data set [20] the test system is Mus musculus. As to the kind of experiment: Anti-alzheimer activity against APP/PS1 dE9 double transgenic mouse model assessed as time spent in platform quadrant at 30 mg/kg, po administered 3 times/week for 1 month and measured after 40 to 45 days of treatment by Morris water maze test (reference value: 11.06 +/- 1.53 %). To be noted: time 27 day. Type of data set: functional.

A short description of data set [21]: Inhibition of human SAPK2a T106 mutant assessed as incorporation of 33P-ATP.
Data set [22] has as its system Cortical neurone. As to the kind of experiment: Neuroprotective activity against Amyloid beta (1 to 42)-induced toxicity in rat cortical neuron assessed as cell viability measured after 24 to 48 hrs by MTT assay. The data set is classed as functional, cell-based. The settings on record: time 24-48 hrs.
Data set [23] can be described thus: Brain to Plasma ratio in Sprague-Dawley rat at 30 mg/kg, po measured at Tmax. Type of data set: ADME, organism-based. To be noted: read-out: BPR.

Mitogen-activated protein kinase 10 (Rattus norvegicus), sequence (P49187 whole entry): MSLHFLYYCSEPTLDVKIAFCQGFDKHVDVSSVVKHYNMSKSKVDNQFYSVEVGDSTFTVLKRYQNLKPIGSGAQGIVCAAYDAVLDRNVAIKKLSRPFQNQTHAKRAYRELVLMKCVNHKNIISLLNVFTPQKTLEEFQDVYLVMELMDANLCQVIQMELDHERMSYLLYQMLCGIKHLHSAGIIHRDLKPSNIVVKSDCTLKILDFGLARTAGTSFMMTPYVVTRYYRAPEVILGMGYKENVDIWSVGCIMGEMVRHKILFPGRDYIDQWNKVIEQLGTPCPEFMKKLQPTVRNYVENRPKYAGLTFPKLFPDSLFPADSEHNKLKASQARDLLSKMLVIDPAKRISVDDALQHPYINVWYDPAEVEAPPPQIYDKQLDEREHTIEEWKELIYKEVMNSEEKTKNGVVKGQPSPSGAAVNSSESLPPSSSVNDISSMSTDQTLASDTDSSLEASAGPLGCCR
Glycogen synthase kinase-3 alpha, sequence (P49840 whole entry): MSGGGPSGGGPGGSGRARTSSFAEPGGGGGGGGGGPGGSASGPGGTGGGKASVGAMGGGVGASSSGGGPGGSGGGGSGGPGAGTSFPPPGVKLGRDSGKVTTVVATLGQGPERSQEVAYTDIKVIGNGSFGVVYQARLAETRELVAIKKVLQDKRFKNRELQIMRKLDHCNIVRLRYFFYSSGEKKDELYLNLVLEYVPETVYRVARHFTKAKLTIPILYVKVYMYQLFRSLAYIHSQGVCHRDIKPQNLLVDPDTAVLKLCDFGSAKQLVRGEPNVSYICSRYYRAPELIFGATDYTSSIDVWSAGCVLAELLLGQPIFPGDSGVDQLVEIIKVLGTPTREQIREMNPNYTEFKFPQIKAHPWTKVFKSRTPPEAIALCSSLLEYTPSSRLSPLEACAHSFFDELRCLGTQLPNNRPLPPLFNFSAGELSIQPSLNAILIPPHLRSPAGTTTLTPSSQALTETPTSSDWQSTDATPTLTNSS

One may read the IC50 as the concentration at which inhibition is half-maximal. The term AUC denotes concentration integrated over time. Read a low AUC as low exposure. In general, half-life refers to the time needed for the level to fall by half in the phase considered. Read a low half-life as fast loss. By Tmax is commonly meant the time from dosing to the highest level. As a reminder, the bioavailability is the share of a dose that reaches the circulation, judged against a reference dose that is usually intravenous. With `N#CCc1cnc(-c2ccc3ccccc3c2)n1-c1ccnc(N[C@H]2CCCN(C(=O)C3CC3)C2)n1`, the IC50 was determined as 970 nM in [1]; 15100 nM in [6]; 1180 nM in data set [12]; 5780 nM in [13]; 1190 nM in [21]. Also, the Time came to 54.09 s with Mus musculus [2]; 10.53 s in the data set with Mus musculus [3]; 31.7 s in the data set on Mus musculus [7]; 59.82 s in the data set with Mus musculus [10]; 15.06 s with Mus musculus [20]. This molecule returned a Drug uptake in data set [4] of 26 ng/g. The same molecule returned an AUC at 24 h in [5] of 338 ng·h/mL. The Activity entry is “Dose-Dependent Effect” in data set [8]; 56.12% in the data set on Mus musculus [9]; “Non-Toxic” in data set [15]; “Non-Toxic” in data set [16]; 50.97% with Mus musculus [18]; “Dose-Dependent Effect” in the data set with Cortical neurone [22]. Also, the half-life in data set [11] was 20.4 min. The viability at 20 µM in the data set on Cortical neurone [14] amounted to 46.8%. In addition, the Tmax in [17] turned out to be 37.8 min. This molecule also displayed a bioavailability in data set [19] of 15.7%. Besides, the Kp in data set [23] is 0.02.
